Assay results reported in patent US9353067B2, “Heterocyclic compounds and uses thereof in the treatment of sexual disorders” (ATIR Holding S.A., priority 2011, dated 2016).

Assays:
[1] = molecular target: D2 short receptor (Homo sapiens (Human), UniProt P14416); assay: Competitive binding to D2 short receptor ([3H]-spiperone), D4/D2 selectivity; conditions: ratio of concentrations required to inhibit 50% of radioligand binding for each receptor
Experimental: R-55 (which comprises a 3-hydroxyphenyl moiety) and its isomers L-221 (comprising a 4-hydroxyphenyl moiety) and L-238 (comprising a 2-hydroxyphenyl moiety) were assayed for competitive binding to D2 SHORT and D4.4 type dopamine receptors, in order to assess their efficacy for treating sexual disorders. Both receptor types are expressed as human recombinant proteins in CHO cells, as described, for example, in Jarvis et al. (1973); Van Tol et al. (1991) and Van Tol et al. (1992).
Determination of binding to D2 short receptor was performed using [^3H]-spiperone, a D2 receptor ligand (Gundlach et al., 1984), as a radioligand (20-60 Ci/mmol, 0.2 nM) in the presence of various concentrations of the tested compound. Reactions were carried out in 50 mM TRIS-HCl (pH 7.4) containing 120 mM NaCl, 5 mM KCl, 5 mM MgCl2 and 1 mM EDTA, for 60 minutes at 25° C. The reaction was terminated by rapid vacuum filtration onto glass fiber filters. Radioactivity trapped onto the filters was determined (counted) and compared to control values in order to accurately evaluate any interaction of the test compound(s) with the cloned dopamine D2 short binding site.
Selectivity of R-55 was calculated as the D4/D2 binding ratio, based on the ratio of the concentration required to inhibit 50% of the radioligand binding for each receptor.

[2] = tested on: Adrenergic α2 receptor; assay: Competitive binding, rauwolscine radioligand; set-up: species or system Wistar rat
Experimental: (§1) R-55 (which comprises a 3-hydroxyphenyl moiety) and the structurally related compounds N-108 (2-{[4-(2-ethoxyphenyl)piperazin-1-yl]methyl}quinazolin-4(3H)-one) and B-39 (7-chloro-2-((5,6-dihydro-4-(2-methoxyphenyl)pyridin-1(2H)-yl)methyl)quinazolin-4(3H)-one) were assayed for competitive binding to a variety of receptors, including D4.4 type dopamine receptor, in order to assess their specificity for D4.4 dopamine receptors.
(§2) The receptors were expressed as human recombinant proteins in CHO cells, except for adrenergic α1 and α2 receptors which were expressed in Wistar rat brain and cerebral cortex cells, respectively, and melanocortin MC4 receptor which was expressed in human recombinant HEK-293 cells. Binding was determined using the following radioligands in the presence of various concentrations of the tested compound:
0.7 nM rauwolscine for adrenergic α2 receptor,
(§3) The binding assays were performed in accordance with procedures described in the literature (Greengrass & Bremner, 1979; Boyajian & Leslie, 1987; Broadhurst, 1988; Lewis, 2001; Sutton, 1995; Dearry, 1990; Zhou, 1990; Grandy, 1989; Hayes, 1992; Sokoloff, 1990; Van Tol, 1991; Van Tol 1992; Sunahara, 1991; Weinshank, 1991; Schioth, 1996; Schioth 1997; Martin & Humphrey, 1994; May, 2003; Wolf & Schutz, 1997).

[3] = molecular target: Dopamine D2S receptor (Homo sapiens (Human), UniProt P14416); assay: Competitive binding, spiperone radioligand
Dopamine D2S receptor, sequence (P14416 other isoform, or with tags, fused parts or gaps): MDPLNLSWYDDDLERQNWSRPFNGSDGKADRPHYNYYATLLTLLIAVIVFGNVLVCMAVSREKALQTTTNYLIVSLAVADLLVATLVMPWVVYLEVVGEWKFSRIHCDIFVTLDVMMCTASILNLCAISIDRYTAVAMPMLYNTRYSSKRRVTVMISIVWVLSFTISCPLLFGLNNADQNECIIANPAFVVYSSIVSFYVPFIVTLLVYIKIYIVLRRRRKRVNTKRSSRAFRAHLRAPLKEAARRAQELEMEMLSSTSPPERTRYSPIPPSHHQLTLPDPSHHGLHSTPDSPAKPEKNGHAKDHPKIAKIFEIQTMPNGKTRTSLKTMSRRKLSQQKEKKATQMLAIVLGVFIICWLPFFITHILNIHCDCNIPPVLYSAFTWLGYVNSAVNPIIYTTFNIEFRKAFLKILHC
Experimental: as §1, §2
(§4) 0.16 nM, 0.7 nM and 1.2 nM spiperone, respectively, for dopamine D2S, D3 and D4.4 receptors,
as §3

[4] = molecular target: Dopamine D3 receptor (Homo sapiens (Human), UniProt P35462); assay: Competitive binding, spiperone radioligand
Dopamine D3 receptor, sequence (P35462 whole entry): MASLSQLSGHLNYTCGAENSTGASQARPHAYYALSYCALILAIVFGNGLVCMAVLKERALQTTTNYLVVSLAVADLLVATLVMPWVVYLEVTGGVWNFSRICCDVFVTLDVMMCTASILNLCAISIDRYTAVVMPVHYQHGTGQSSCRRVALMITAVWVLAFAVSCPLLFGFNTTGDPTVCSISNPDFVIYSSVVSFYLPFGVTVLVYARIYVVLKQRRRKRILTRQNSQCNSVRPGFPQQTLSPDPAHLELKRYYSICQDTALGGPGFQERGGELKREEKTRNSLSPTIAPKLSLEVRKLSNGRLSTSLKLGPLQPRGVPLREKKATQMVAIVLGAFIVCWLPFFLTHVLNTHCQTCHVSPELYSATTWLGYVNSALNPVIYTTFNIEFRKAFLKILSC
Experimental: as §1, §2, §4, §3

[5] = molecular target: Dopamine D4.4 receptor (Homo sapiens (Human), UniProt P21917); assay: Competitive binding, spiperone radioligand
Dopamine D4.4 receptor, sequence (P21917 whole entry): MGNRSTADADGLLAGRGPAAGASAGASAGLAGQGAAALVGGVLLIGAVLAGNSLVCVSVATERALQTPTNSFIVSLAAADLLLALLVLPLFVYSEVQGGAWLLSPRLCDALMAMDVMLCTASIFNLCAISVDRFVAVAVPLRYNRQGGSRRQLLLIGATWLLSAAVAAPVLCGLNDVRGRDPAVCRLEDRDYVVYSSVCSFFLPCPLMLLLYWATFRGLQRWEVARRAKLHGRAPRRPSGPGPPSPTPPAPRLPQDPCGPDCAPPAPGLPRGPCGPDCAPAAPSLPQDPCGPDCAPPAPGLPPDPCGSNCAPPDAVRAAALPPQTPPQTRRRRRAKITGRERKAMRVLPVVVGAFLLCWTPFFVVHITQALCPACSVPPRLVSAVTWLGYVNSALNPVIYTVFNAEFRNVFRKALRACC
Experimental: as §1, §2, §4, §3

[6] = molecular target: PARP-1 (Homo sapiens (Human), UniProt P09874); assay: Universal Chemiluminescent PARP Assay; assay type: biochemical
PARP-1, sequence (P09874 whole entry): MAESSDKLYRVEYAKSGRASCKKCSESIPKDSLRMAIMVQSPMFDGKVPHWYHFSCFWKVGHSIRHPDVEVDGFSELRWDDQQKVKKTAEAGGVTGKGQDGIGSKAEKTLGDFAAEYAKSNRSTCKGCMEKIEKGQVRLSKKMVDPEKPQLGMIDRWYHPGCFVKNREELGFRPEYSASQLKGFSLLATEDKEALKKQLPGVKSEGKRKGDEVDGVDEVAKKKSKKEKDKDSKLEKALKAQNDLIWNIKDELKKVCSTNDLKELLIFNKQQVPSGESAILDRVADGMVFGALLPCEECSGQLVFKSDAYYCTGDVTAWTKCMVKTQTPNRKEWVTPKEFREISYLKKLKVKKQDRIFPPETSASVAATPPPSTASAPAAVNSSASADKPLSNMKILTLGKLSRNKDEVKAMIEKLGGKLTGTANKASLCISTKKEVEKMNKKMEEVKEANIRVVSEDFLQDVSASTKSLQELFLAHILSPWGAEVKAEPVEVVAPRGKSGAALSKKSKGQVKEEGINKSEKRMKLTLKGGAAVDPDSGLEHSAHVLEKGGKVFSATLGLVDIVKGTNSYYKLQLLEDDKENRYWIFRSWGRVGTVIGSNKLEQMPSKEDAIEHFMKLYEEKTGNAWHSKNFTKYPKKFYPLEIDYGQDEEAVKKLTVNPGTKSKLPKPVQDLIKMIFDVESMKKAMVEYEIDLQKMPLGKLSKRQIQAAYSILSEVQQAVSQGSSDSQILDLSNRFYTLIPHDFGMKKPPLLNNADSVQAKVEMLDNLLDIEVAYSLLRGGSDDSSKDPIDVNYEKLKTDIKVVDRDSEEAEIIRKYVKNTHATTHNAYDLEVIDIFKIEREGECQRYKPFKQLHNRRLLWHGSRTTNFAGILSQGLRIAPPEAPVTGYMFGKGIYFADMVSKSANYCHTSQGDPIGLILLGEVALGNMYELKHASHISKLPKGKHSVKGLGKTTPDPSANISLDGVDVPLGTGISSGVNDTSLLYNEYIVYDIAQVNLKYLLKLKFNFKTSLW
Experimental: In addition, R-55 and its hydrochloride salt were assayed for PARP (poly(ADP-ribose)polymerase) inhibitory activity, as some quinazolinone derivatives, particularly derivatives comprising quinazolinone linked via a three-carbon moiety to substituted pyridinyl and piperazinyl moieties, have been identified as potent PARP inhibitors [U.S. Patent Application Publication No. 2004/0077667; Iwashita et al., FEBS Lett 579:1389-1393(2005); Hattori et al., J Med Chem 47:4151-4154(2004)]. PARP plays a natural role in repair of DNA damage, and inhibition of PARP may lead to undesirable side effects in any treatment of a sexual disorder.
Inhibition of PARP-1 was assayed using a Universal Chemiluminescent PARP Assay (Trevigen, Inc.).
The tested compounds were diluted from 2.1 mg of powder in 25 μl of DMSO. The tested compounds were diluted to 100 μM in 1% DMSO/99% ethanol. 3-Aminobenzamide (3-AB), a commercially available weak PARP inhibitor, was used as a positive control. The activity of PARP was quantified as relative light units (RLU). Each of the tested compounds was assayed twice.
In Assay 1, the 100 μM stock solution was diluted to 40 μM in 1×PARP buffer. The compounds were then serially diluted down to 0.4 μM. Each tested compound was
further diluted 1:4 during the assay, so the final concentrations ranged from 10 μM to 0.1 μM.
In Assay 2, the 100 μM stock was added to 1×PARP buffer to prepare samples with concentrations ranging from 40 μM to 2 μM. A 10 μM stock solution was added to 1×PARP buffer to prepare samples with concentrations of 1 μM and 0.4 μM. Each tested compound was further diluted 1:4 during the assay, so the final concentrations ranged from 10 μM to 0.1 μM.

D2 short receptor, sequence (P14416 other isoform, or with tags, fused parts or gaps): as the sequence (P14416 other isoform, or with tags, fused parts or gaps) above

Selectivity D4/D2 [1]: 160 | Competitive binding (%) at 5 μM of tested compound [2]: 39% | Competitive binding (%) at 5 μM of tested compound [3]: 7% | Competitive binding (%) at 5 μM of tested compound [4]: 5% | Competitive binding (%) at 5 μM of tested compound ([5]; Dopamine D4.4 receptor, 5 μM): 31% | binding affinity to the D4.4 receptor (in words) ([5]; Table 8): high binding affinity | inhibition at 5 µM ([6]; 5 μM, average results from two assays): 19% | inhibition at 10 µM ([6]; 10 μM, average results from two assays): 21%
SMILES: O=c1[nH]c(CN2CCN(c3cccc(O)c3)CC2)nc2ccccc12 [Compound R-55, 2-((4-(3-hydroxyphenyl)piperazin-1-yl)methyl)quinazolin-4-one]
inhibition of PARP (in words) ([6]; Assay 1 and Assay 2, 0.1 μM to 10 μM): did not exhibit any significant inhibition of PARP
